Like-named read-outs stand apart in the source and are kept apart here.
Columns and labels:
Assay type in all cases: binding
[1] = molecular target: T1, DNA-dependent protein kinase (DNA-PK) (Homo sapiens, UniProt P78527); experiment: kinobeads assay, DNA-PK; details: kinobeads assay
T1 construct: endogenous in cells; host or cells: Jurkat, clone E6-1 (ATCC TIB-152) cell lysate
Procedure, shortened: (§1)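 Competitive binding in Jurkat cell lysate (5 mg/mL protein) against beads carrying an immobilized phenylmorpholin-chromen ligand, in DP buffer pH 7.4 with NP40, DTT and NaF. Bead-bound kinases were eluted and quantified by antibody dot blot with infrared detection, and IC50 was taken from dose-response curves of a 1:3 dilution series.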

[2] = molecular target: T2, PI3K delta (PI3 Kd) (Homo sapiens, UniProt O00329); experiment: kinobeads assay, PI3K delta; details: kinobeads assay, read-out: Inhibition values (IC50) PI3Kd
T2 construct: endogenous in cells; host or cells: Jurkat, clone E6-1 (ATCC TIB-152) cell lysate
Procedure, shortened: as §1

[3] = molecular target: T3, PI3Kalpha (PI3Ka) (Homo sapiens, UniProt P42336); experiment: kinobeads assay, PI3Kalpha; details: kinobeads assay, Table 6; for IC50: read-out: Inhibition values (IC50) PI3Ka
T3 construct: endogenous in cells; host or cells: cell lysate
Procedure, shortened: (§2)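 IC50s are fitted to per-kinase dose-response curves. Kinases retained on phenylmorpholin-chromen affinity beads are read by multiplexed immunodetection after elution. Compound, added at a range of concentrations straight into cell lysate, competes for this bead capture.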

[4] = molecular target: T4, PI3 Kgamma (PI3 Kg) (Homo sapiens, UniProt P48736); experiment: kinobeads assay, PI3Kgamma; details: kinobeads assay, Table 6; read-out: Inhibition values (IC50) PI3Kg
T4 construct: endogenous in cells; host or cells: cell lysate
Procedure, shortened: as §2

[5] = Table 4, read-out: Inhibition values (IC50) DNA-PK
[6] = Table 6, read-out: Inhibition values (IC50) DNAPK

T1 sequence (P78527 whole entry): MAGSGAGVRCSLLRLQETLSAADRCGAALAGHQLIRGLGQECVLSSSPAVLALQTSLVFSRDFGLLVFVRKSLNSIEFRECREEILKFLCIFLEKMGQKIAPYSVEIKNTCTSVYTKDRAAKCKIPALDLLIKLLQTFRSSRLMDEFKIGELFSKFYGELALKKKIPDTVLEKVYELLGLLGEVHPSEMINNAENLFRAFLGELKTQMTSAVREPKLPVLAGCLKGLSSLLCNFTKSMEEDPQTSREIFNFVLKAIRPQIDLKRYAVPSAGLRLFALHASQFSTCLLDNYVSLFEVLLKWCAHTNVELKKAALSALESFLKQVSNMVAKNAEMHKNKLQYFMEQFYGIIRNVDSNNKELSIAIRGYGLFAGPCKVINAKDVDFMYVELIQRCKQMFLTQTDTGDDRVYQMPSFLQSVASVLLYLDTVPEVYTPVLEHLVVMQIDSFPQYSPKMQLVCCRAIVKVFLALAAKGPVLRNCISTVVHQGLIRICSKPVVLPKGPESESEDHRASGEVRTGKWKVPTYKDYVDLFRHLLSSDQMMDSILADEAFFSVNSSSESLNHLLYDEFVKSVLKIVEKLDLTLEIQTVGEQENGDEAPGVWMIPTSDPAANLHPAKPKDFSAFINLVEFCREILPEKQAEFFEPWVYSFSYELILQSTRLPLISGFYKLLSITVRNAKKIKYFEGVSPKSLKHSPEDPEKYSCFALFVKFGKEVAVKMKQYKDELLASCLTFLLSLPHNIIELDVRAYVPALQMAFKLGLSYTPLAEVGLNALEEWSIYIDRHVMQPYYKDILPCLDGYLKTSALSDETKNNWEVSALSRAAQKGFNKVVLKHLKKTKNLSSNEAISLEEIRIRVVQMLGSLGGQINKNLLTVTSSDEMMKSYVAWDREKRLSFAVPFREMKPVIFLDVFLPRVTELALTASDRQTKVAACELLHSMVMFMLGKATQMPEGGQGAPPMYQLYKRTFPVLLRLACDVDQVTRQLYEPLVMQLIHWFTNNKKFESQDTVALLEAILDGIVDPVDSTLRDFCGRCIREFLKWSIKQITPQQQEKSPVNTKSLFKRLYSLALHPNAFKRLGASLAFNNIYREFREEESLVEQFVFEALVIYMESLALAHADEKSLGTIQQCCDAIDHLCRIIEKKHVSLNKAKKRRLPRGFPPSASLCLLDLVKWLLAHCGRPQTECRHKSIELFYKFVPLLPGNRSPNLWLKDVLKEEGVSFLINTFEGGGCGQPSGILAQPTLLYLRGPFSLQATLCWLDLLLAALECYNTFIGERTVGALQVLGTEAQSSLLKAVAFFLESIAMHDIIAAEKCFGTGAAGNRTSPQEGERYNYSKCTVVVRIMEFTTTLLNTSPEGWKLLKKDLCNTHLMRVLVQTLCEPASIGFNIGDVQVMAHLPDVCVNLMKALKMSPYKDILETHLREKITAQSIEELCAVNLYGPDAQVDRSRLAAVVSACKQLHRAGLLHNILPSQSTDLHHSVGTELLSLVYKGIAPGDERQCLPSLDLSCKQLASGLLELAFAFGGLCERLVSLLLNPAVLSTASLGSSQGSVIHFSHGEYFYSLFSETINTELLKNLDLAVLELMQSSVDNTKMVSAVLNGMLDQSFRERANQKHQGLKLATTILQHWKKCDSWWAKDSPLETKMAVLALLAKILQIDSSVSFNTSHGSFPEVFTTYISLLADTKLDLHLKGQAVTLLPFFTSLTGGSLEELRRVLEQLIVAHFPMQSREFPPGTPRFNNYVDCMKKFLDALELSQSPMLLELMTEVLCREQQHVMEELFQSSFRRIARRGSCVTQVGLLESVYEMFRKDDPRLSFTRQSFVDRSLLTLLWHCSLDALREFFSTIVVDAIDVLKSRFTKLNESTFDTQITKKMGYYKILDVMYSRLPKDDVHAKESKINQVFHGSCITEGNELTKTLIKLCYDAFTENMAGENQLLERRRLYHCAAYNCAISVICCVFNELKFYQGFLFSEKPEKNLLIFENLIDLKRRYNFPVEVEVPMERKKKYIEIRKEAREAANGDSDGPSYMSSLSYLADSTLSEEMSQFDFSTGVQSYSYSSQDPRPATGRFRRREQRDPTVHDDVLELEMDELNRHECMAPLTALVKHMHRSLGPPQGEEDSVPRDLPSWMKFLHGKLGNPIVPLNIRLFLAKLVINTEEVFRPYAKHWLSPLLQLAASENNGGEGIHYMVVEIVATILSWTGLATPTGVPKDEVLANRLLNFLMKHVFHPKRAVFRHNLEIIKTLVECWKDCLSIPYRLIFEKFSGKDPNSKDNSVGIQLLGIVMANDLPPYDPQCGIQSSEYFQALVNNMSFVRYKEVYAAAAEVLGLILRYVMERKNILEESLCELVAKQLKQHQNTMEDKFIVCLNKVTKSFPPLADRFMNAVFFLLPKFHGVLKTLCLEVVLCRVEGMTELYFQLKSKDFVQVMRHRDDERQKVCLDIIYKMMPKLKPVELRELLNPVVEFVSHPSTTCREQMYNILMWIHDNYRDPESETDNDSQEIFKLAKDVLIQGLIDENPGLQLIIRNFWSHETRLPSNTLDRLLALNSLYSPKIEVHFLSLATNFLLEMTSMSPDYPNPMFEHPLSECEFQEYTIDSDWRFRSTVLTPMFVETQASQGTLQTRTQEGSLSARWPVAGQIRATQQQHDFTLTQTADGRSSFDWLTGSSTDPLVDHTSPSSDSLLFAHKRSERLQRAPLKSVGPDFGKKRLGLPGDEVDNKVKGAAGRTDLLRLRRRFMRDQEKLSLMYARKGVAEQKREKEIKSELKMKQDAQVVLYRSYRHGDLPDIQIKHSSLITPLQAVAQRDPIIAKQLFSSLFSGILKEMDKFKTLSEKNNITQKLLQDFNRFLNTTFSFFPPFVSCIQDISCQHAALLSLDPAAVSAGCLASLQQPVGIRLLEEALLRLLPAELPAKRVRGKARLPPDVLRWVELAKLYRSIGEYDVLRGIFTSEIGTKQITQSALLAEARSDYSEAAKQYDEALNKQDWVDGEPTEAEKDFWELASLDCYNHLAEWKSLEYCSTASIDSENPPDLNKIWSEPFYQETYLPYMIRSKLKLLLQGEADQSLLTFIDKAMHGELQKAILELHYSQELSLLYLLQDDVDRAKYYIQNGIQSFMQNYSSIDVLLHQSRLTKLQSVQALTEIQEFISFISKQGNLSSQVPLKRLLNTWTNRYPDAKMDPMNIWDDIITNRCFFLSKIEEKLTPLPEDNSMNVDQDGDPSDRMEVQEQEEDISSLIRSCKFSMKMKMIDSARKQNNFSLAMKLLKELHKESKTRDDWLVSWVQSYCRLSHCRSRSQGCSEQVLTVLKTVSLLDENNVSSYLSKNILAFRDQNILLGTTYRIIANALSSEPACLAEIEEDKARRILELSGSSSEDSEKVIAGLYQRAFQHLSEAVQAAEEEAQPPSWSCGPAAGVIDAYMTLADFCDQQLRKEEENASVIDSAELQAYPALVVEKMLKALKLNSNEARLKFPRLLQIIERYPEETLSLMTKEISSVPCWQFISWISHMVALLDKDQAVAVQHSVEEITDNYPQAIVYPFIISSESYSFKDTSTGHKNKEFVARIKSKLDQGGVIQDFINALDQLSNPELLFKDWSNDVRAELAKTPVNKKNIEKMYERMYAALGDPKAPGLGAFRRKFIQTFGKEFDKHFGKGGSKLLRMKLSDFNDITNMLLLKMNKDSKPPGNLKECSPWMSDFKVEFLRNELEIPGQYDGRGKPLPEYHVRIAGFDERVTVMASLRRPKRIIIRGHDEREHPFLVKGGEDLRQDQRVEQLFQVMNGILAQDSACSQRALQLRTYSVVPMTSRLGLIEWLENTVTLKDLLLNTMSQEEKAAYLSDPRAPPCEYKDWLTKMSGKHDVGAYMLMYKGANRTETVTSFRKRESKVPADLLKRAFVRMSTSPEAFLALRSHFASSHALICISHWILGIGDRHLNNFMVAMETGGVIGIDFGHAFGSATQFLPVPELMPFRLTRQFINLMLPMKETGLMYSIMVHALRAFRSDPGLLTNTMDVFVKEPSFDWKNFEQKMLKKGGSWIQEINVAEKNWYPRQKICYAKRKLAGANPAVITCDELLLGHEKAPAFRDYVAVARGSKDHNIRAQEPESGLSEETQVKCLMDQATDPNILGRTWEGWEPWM

Row | IC50 [1, 5] | IC50 [1, 6] | IC50 ([2]; Table 4) | IC50 ([2]; Table 6) | Inhibition values (IC50) PI3Ka [3] | IC50 [4] | IC50 [3] | Structure (SMILES)
1 | > 10 µM | > 10 µM | > 10 µM | > 10 µM |  |  |  | CCNC(=O)Nc1ccc(-c2nc3c(c(N4CCOC[C@@H]4C)n2)CN(C(=O)OC(C)(C)C)C3)cc1 [Example 1, (S)-tert-butyl 2-(4-(3-ethylureido)phenyl)-4-(3-methylmorpholino)-5H-pyrrolo[3,4-d]pyrimidine-6(7H)-carboxylate]
2 | > 10 µM | > 10 µM | > 10 µM | > 10 µM | D (D >10 μM) | > 10 µM |  | CCNC(=O)Nc1ccc(-c2nc3c(c(N4CCOC[C@@H]4C)n2)CCN(C(=O)C(C)(C)C)C3)cc1 [Example 58, (S)-1-ethyl-3-(4-(4-(3-methylmorpholino)-7-pivaloyl-5,6,7,8-tetrahydropyrido[3,4-d]pyrimidin-2-yl)phenyl)urea]
3 | > 10 µM | > 10 µM | > 10 µM | > 10 µM |  |  |  | CCNC(=O)Nc1ccc(-c2nc3c(c(N4CCOC[C@@H]4C)n2)CCN(C(C)=O)C3)cc1 [Example 59, (S)-1-(4-(7-acetyl-4-(3-methylmorpholino)-5,6,7,8-tetrahydropyrido[3,4-d]pyrimidin-2-yl)phenyl)-3-ethylurea]
4 | > 10 µM | > 10 µM | > 10 µM | > 10 µM | D (D >10 μM) | > 10 µM |  | C[C@H]1COCCN1c1nc(-c2ccc(NC(=O)NC3CC3)cc2)nc2c1CCN(C(=O)C1CC1)C2 [Example 60, (S)-1-(4-(7-(cyclopropanecarbonyl)-4-(3-methylmorpholino)-5,6,7,8-tetrahydropyrido[3,4-d]pyrimidin-2-yl)phenyl)-3-cyclopropylurea]
5 | > 10 µM | > 10 µM | > 10 µM | > 10 µM | D (D >10 μM) | > 10 µM |  | CC(C)C(=O)N1CCc2c(nc(-c3ccc(NC(=O)NC4CC4)cc3)nc2N2CCOC[C@@H]2C)C1 [Example 61, (S)-1-cyclopropyl-3-(4-(7-isobutyryl-4-(3-methylmorpholino)-5,6,7,8-tetrahydropyrido[3,4-d]pyrimidin-2-yl)phenyl)urea]
6 | > 10 µM | > 10 µM | > 10 µM | > 10 µM | D (D >10 μM) | > 10 µM |  | CC(=O)N1CCc2c(nc(-c3ccc(NC(=O)NC4CC4)cc3)nc2N2CCOC[C@@H]2C)C1 [Example 62, (S)-1-(4-(7-acetyl-4-(3-methylmorpholino)-5,6,7,8-tetrahydropyrido[3,4-d]pyrimidin-2-yl)phenyl)-3-cyclopropylurea]
7 |  | > 10 µM |  | > 10 µM | D (D >10 μM) | > 10 µM |  | C[C@H]1COCCN1c1nc(-c2ccc(NC(=O)NC3CC3)cc2)nc2c1CCN(C(=O)C(C)(C)C)C2 [Example 64, (S)-1-cyclopropyl-3-(4-(4-(3-methylmorpholino)-7-pivaloyl-5,6,7,8-tetrahydropyrido[3,4-d]pyrimidin-2-yl)phenyl)urea]
8 |  | > 10 µM |  | > 10 µM | D (D >10 μM) | > 10 µM |  | CC(C)CN1Cc2nc(-c3ccc(NC(=O)NC4CC4)cc3)nc(N3CCOC[C@@H]3C)c2C1 [Example 65, (S)-1-cyclopropyl-3-(4-(6-isobutyl-4-(3-methylmorpholino)-6,7-dihydro-5H-pyrrolo[3,4-d]pyrimidin-2-yl)phenyl)urea]
9 |  | > 10 µM |  | > 10 µM | D (D >10 μM) | > 10 µM |  | CCNC(=O)Nc1ccc(-c2nc3c(c(N4CCOC[C@@H]4C)n2)CN(CC(C)C)C3)cc1 [Example 66, (S)-1-ethyl-3-(4-(6-isobutyl-4-(3-methylmorpholino)-6,7-dihydro-5H-pyrrolo[3,4-d]pyrimidin-2-yl)phenyl)urea]
10 |  | > 10 µM |  | > 10 µM | D (D >10 μM) | > 10 µM |  | CCNC(=O)Nc1ccc(-c2nc3c(c(N4CCOC[C@@H]4C)n2)CN(CC(C)(C)C)C3)cc1 [Example 67, (S)-1-ethyl-3-(4-(4-(3-methylmorpholino)-6-neopentyl-6,7-dihydro-5H-pyrrolo[3,4-d]pyrimidin-2-yl)phenyl)urea]
11 |  | > 10 µM |  | > 10 µM | D (D >10 μM) | > 10 µM |  | CCNC(=O)Nc1ccc(-c2nc3c(c(N4CCOC[C@@H]4C)n2)CN(CC(F)(F)F)C3)cc1 [Example 68, (S)-1-ethyl-3-(4-(4-(3-methylmorpholino)-6-(2,2,2-trifluoroethyl)-6,7-dihydro-5H-pyrrolo[3,4-d]pyrimidin-2-yl)phenyl)urea]
12 |  | > 10 µM |  | > 10 µM |  | > 10 µM | 1 to 10 µM | CCNC(=O)Nc1ccc(-c2nc3c(c(N4CCOCC4)n2)CN(C)C3)cc1 [Example 69, 1-Ethyl-3-(4-(6-methyl-4-morpholino-6,7-dihydro-5H-pyrrolo[3,4-d]pyrimidin-2-yl)phenyl)urea]
13 |  | 1 to 10 µM |  | 1 to 10 µM | D (D >10 μM) | > 10 µM |  | CCNC(=O)Nc1ccc(-c2nc3c(c(N4CCOCC4)n2)CN(C(=O)OCC)C3)cc1 [Example 70, Ethyl 2-(4-(3-ethylureido)phenyl)-4-morpholino-5H-pyrrolo[3,4-d]pyrimidine-6(7H)-carboxylate]
14 |  | > 10 µM |  | 1 to 10 µM |  | 1 to 10 µM | 1 to 10 µM | C[C@H]1COCCN1c1nc(-c2ccc(NC(N)=O)cc2)nc2c1CN(C)C2 [Example 71, (S)-1-(4-(6-methyl-4-(3-methylmorpholino)-6,7-dihydro-5H-pyrrolo[3,4-d]pyrimidin-2-yl)phenyl)urea]
15 |  | > 10 µM |  | > 10 µM | D (D >10 μM) | > 10 µM |  | Cc1cc(NC(=O)Nc2ccc(-c3nc4c(c(N5CCOC[C@@H]5C)n3)CN(C)C4)cc2)no1 [Example 72, (S)-1-(4-(6-methyl-4-(3-methylmorpholino)-6,7-dihydro-5H-pyrrolo[3,4-d]pyrimidin-2-yl)phenyl)-3-(5-methylisoxazol-3-yl)urea]
16 |  | > 10 µM |  | 1 to 10 µM |  | > 10 µM | 1 to 10 µM | C[C@H]1COCCN1c1nc(-c2ccc(NC(=O)NCCO)cc2)nc2c1CN(C)C2 [Example 73, (S)-1-(2-hydroxyethyl)-3-(4-(6-methyl-4-(3-methylmorpholino)-6,7-dihydro-5H-pyrrolo[3,4-d]pyrimidin-2-yl)phenyl)urea]
17 |  | > 10 µM |  | > 10 µM | D (D >10 μM) | > 10 µM |  | CCNC(=O)Nc1ccc(-c2nc3c(c(N4CCOC[C@@H]4C)n2)CN(C(C)C)C3)cc1 [Example 74, (S)-1-ethyl-3-(4-(6-isopropyl-4-(3-methylmorpholino)-6,7-dihydro-5H-pyrrolo[3,4-d]pyrimidin-2-yl)phenyl)urea]
18 |  | > 10 µM |  | > 10 µM | D (D >10 μM) | > 10 µM |  | CCNC(=O)Nc1ccc(-c2nc3c(c(N4CCOC[C@@H]4C)n2)CCN(CC(C)C)C3)cc1.O=CO [Example 76, (S)-1-ethyl-3-(4-(7-isobutyl-4-(3-methylmorpholino)-5,6,7,8-tetrahydropyrido[3,4-d]pyrimidin-2-yl)phenyl)urea formate]
19 |  | > 10 µM |  | > 10 µM | D (D >10 μM) | > 10 µM |  | CCNC(=O)Nc1ccc(-c2nc3c(c(N4CCOC[C@@H]4C)n2)CCN(C(=O)OCC)C3)cc1 [Example 77, (S)-ethyl 2-(4-(3-ethylureido)phenyl)-4-(3-methylmorpholino)-5,6-dihydropyrido[3,4-d]pyrimidine-7(8H)-carboxylate]
20 |  | > 10 µM |  | > 10 µM | D (D >10 μM) | > 10 µM |  | CCOC(=O)N1CCc2c(nc(-c3ccc(NC(=O)NC4CC4)cc3)nc2N2CCOC[C@@H]2C)C1 [Example 78, (S)-ethyl 2-(4-(3-cyclopropylureido)phenyl)-4-(3-methylmorpholino)-5,6-dihydropyrido[3,4-d]pyrimidine-7(8H)-carboxylate]
21 |  | > 10 µM |  | > 10 µM |  |  |  | C[C@H]1COCCN1c1nc(-c2ccc(NC(=O)NC3CC3)cc2)nc2c1CN(CC(F)(F)F)C2 [Example 101, (S)-1-cyclopropyl-3-(4-(4-(3-methylmorpholino)-6-(2,2,2-trifluoroethyl)-6,7-dihydro-5H-pyrrolo[3,4-d]pyrimidin-2-yl)phenyl)urea]
22 |  |  |  | > 10 µM | D (D >10 μM) | > 10 µM |  | C[C@H]1COCCN1c1nc(-c2ccc(NC(=O)NC3CC3)cc2)nc2c1CN(C(=O)C1CCOCC1)C2 [Example 129, (S)-1-cyclopropyl-3-(4-(4-(3-methylmorpholino)-6-(tetrahydro-2H-pyran-4-carbonyl)-6,7-dihydro-5H-pyrrolo[3,4-d]pyrimidin-2-yl)phenyl)urea]

From US8785457B2 (Cellzome Limited, priority 2009, dated 2014)
